# Test results published in ChEMBL document CHEMBL1201862, “PubChem BioAssay data set” (2004).
#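 Five concentrations, 48 hours, 96-well plates. Abbreviation: GI50, concentration required for 50% inhibition of growth.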 Activity calls are given as the source filed them. Cut-off read from the data, not from the text of the source: active = GI50 up to about 1.1 µM and inactive = higher.
# What was measured:
# Experiment in all cases: growth of human tumour cells (NCI), 48 h
# [1] = test system: TK-10
# [2] = test system: COLO 205
# [3] = test system: MDA-MB-435
# [4] = test system: M14
# [5] = test system: UO-31
# [6] = test system: SK-OV-3
# [7] = test system: EKVX
# [8] = test system: HOP-92
# [9] = test system: OVCAR-5
# [10] = test system: RPMI-8226
# [11] = test system: KM12
# [12] = test system: BT-549
# [13] = test system: HT-29
# [14] = test system: MDA-MB-231
# [15] = test system: NCI-H522
# [16] = test system: IGROV-1
# [17] = test system: 786-0
# [18] = test system: SNB-19
# [19] = test system: Malme-3M
SMILES,GI50 [1],GI50 [2],GI50 [3],GI50 [4],GI50 [5],GI50 [6],GI50 [7],GI50 [8],GI50 [9],GI50 [10],GI50 [11],GI50 [12],GI50 [13],GI50 [14],GI50 [15],GI50 [16],GI50 [17],GI50 [18],GI50 [19]
CN(C)/C=C/c1c2c(nc3ccccc13)C(=O)c1cccnc1C2=O,1.4 µM (inactive),2.07 µM (inactive),0.548 µM (active),0.218 µM (active),0.557 µM (active),0.792 µM (active),2.25 µM (inactive),2.04 µM (inactive),1.45 µM (inactive),1.89 µM (inactive),0.35 µM (active),0.402 µM (active),2.2 µM (inactive),0.867 µM (active),0.315 µM (active),1.42 µM (inactive),0.226 µM (active),0.562 µM (active),0.697 µM (active)
C=CCNC(=S)N/N=C1\C(=O)N(CN2CCOCC2)c2ccc([N+](=O)[O-])cc21,5.36 µM (inactive),34.4 µM (inactive),55.1 µM (inactive),17.2 µM (inactive),6.18 µM (inactive),36.5 µM (inactive),15.4 µM (inactive),13.3 µM (inactive),56.2 µM (inactive),33 µM (inactive),28.3 µM (inactive),15.1 µM (inactive),23.2 µM (inactive),39.8 µM (inactive),41.4 µM (inactive),6.21 µM (inactive),15.6 µM (inactive),21.6 µM (inactive),> 100 µM (inactive)
CCOP(=O)(OCC)/C(C#N)=C/c1ccnc2ccccc12,47.1 µM (inactive),18.1 µM (inactive),16.4 µM (inactive),20.1 µM (inactive),< 0.01 µM (active),36.2 µM (inactive),53.3 µM (inactive),18.4 µM (inactive),22.5 µM (inactive),44.7 µM (inactive),27.2 µM (inactive),23.9 µM (inactive),19.7 µM (inactive),24.9 µM (inactive),21.2 µM (inactive),45 µM (inactive),20.4 µM (inactive),21.4 µM (inactive),14 µM (inactive)
CN(NC(=O)c1cccs1)C1=NCCCCN1,> 100 µM (inactive),> 100 µM (inactive),> 100 µM (inactive),> 100 µM (inactive),> 100 µM (inactive),> 100 µM (inactive),> 100 µM (inactive),> 100 µM (inactive),> 100 µM (inactive),> 100 µM (inactive),> 100 µM (inactive),> 100 µM (inactive),> 100 µM (inactive),> 100 µM (inactive),> 100 µM (inactive),> 100 µM (inactive),> 100 µM (inactive),> 100 µM (inactive),> 100 µM (inactive)
Cc1ccc2c(c1)nc1n2C(N)=Nc2ccccc2S1,> 100 µM (inactive),14.8 µM (inactive),71.1 µM (inactive),3.44 µM (inactive),50.4 µM (inactive),> 100 µM (inactive),36.4 µM (inactive),> 40.6 µM (inactive),> 75.7 µM (inactive),19.6 µM (inactive),43.8 µM (inactive),> 100 µM (inactive),15.8 µM (inactive),> 21 µM (inactive),> 63.2 µM (inactive),6.4 µM (inactive),52.7 µM (inactive),35.8 µM (inactive),> 100 µM (inactive)
CCC1=NC(N/N=C/c2ccccc2O)=N/C1=C\c1ccccc1O,11.2 µM (inactive),13.3 µM (inactive),13.3 µM (inactive),10.1 µM (inactive),2.7 µM (inactive),12.4 µM (inactive),10.2 µM (inactive),21.1 µM (inactive),26.7 µM (inactive),12.9 µM (inactive),17 µM (inactive),12.1 µM (inactive),4.81 µM (inactive),36.3 µM (inactive),6.43 µM (inactive),11.5 µM (inactive),6.76 µM (inactive),14.6 µM (inactive),12.4 µM (inactive)
N=C1OC(c2c[nH]c3ccc(OCc4ccccc4)cc23)C(O)=C1O (stereo not drawn),> 100 µM (inactive),> 100 µM (inactive),> 100 µM (inactive),> 100 µM (inactive),> 100 µM (inactive),> 100 µM (inactive),> 100 µM (inactive),> 100 µM (inactive),> 100 µM (inactive),> 100 µM (inactive),> 100 µM (inactive),> 100 µM (inactive),> 100 µM (inactive),74.5 µM (inactive),> 100 µM (inactive),> 100 µM (inactive),> 100 µM (inactive),> 100 µM (inactive),> 100 µM (inactive)
